# From ChEMBL document CHEMBL4819006, “1,4,6-Trisubstituted imidazo[4,5-c]pyridines as inhibitors of Bruton's tyrosine kinase” (Eur J Med Chem, 2021)
# Active and inactive are the calls of the source. The rule behind the calls is not given here.
# Tests used:
# [1] = target: Receptor-type tyrosine-protein kinase FLT3 (Homo sapiens) (UniProt P36888); experiment: Inhibition of human recombinant […] N-terminal GST-tagged FLT3 (R571 to S993 residues) assessed as residual activity using poly (Ala, Glu, Lys, Tyr) hydrobromide as substrate in presence of ATP and Ci(gamma33-P) ATP at 1 uM measured by microplate reader assay
# [2] = Growth inhibition of human patient derived UPF1H cells assessed as inhibition of cell growth measured after 72 hrs by resazurin dye based assay; assay type: functional
# [3] = tested on: K562; experiment: Growth inhibition of human K562 cells assessed as inhibition of cell growth measured after 72 hrs by resazurin dye based assay; assay type: functional
# [4] = target: Tyrosine-protein kinase SYK (Homo sapiens) (UniProt P43405); experiment: Inhibition of human recombinant GST-tagged SYK (M1 to N635 residues) assessed as residual activity using poly (Glu,Tyr) as substrate in presence of ATP and Ci(gamma33-P) ATP at 1 uM measured by microplate reader assay
# [5] = target: Cyclin-dependent kinase 2 (Homo sapiens) (UniProt P24941); experiment: Inhibition of GST-tagged CDK2/cyclinE (unknown origin) expressed in Sf9 cells assessed as residual activity using histone H1 as substrate in presence of ATP and Ci(gamma33-P) ATP at 1 uM measured by microplate reader assay
# [6] = Growth inhibition of human patient derived UPF7U cells assessed as inhibition of cell growth measured after 72 hrs by resazurin dye based assay; assay type: functional
# [7] = target: Tyrosine-protein kinase Fyn (Homo sapiens) (UniProt P06241); experiment: Inhibition of human recombinant full length GST-tagged FYN (M1 to L537 residues) assessed as residual activity using poly (Glu,Tyr) as substrate in presence of ATP and Ci(gamma33-P) ATP at 1 uM measured by microplate reader assay
# [8] = tested on: Rec1; experiment: Growth inhibition of human REC1 cells assessed as inhibition of cell growth measured after 72 hrs by resazurin dye based assay; assay type: functional
# [9] = target: Tyrosine-protein kinase ABL1 (Homo sapiens) (UniProt P00519); experiment: Inhibition of Abl (unknown origin) expressed in Sf9 cells assessed as residual activity using GGEAIYAAPFKK peptide as substrate in presence of ATP and Ci(gamma33-P)ATP at 1 uM measured by microplate reader
# [10] = target: T1, Tyrosine-protein kinase BTK (Homo sapiens, UniProt Q06187); experiment: Inhibition of BTK in human Ramos cells assessed as reduction of IgM stimulated BTK ([…]) phosphorylation at 1 to 5 uM measured after 24 hrs by western blot assay; assay type: cell-based; conditions: dose 1-5 µM
# [11] = tested on: Ramos; experiment: Growth inhibition of human Ramos cells assessed as inhibition of cell growth measured after 72 hrs by resazurin dye based assay; assay type: functional
# [12] = target: T1, Tyrosine-protein kinase BTK; experiment: Inhibition of BTK in human Ramos cells assessed as reduction of IgM stimulated PLCgamma2 (Y1217) phosphorylation at 1 to 5 uM measured after 24 hrs by western blot assay; assay type: cell-based; conditions: dose 1-5 µM
# [13] = target: T1, Tyrosine-protein kinase BTK; experiment: Inhibition of human BTK assessed as residual activity using poly (Glu,Tyr) as substrate in presence of ATP and Ci(gamma33-P) ATP at 1 uM measured by microplate reader assay
# [14] = target: T1, Tyrosine-protein kinase BTK; experiment: Inhibition of human BTK using poly (Glu,Tyr) as substrate in presence of ATP and Ci(gamma33-P) ATP measured by microplate reader assay
# [15] = target: T1, Tyrosine-protein kinase BTK; experiment: Inhibition of BTK in human Ramos cells assessed as reduction of IgM stimulated PLCgamma1 (Y783) phosphorylation at 0.125 to 1 uM measured after 24 hrs by western blot assay relative to Ibrutinib; assay type: cell-based; conditions: dose 0.125-1 µM
# [16] = target: Proto-oncogene tyrosine-protein kinase Src (Homo sapiens) (UniProt P12931); experiment: Inhibition of recombinant SRC (unknown origin) assessed as residual activity at 1 uM
# [17] = target: T1, Tyrosine-protein kinase BTK; experiment: Inhibition of BTK in human UPF7U cells assessed as reduction of IgM stimulated PLCgamma1 (Y783) phosphorylation at 0.125 to 1 uM measured after 24 hrs by western blot assay relative to Ibrutinib; assay type: cell-based; conditions: dose 0.125-1 µM
# [18] = target: T1, Tyrosine-protein kinase BTK; experiment: Inhibition of BTK in human Ramos cells assessed as reduction of IgM stimulated PLCgamma2 (Y1217) phosphorylation at 0.125 to 1 uM measured after 24 hrs by western blot assay relative to Ibrutinib; assay type: cell-based; conditions: dose 0.125-1 µM
# [19] = target: T1, Tyrosine-protein kinase BTK; experiment: Inhibition of BTK in human Ramos cells assessed as reduction of IgM stimulated BTK phosphorylation measured after 24 hrs by western blot assay; assay type: cell-based; conditions: dose 0.125-1 µM
# [20] = target: T1, Tyrosine-protein kinase BTK; experiment: Inhibition of BTK in human UPF7U cells assessed as reduction of IgM stimulated BTK phosphorylation measured after 24 hrs by western blot assay; assay type: cell-based; conditions: dose 0.125-1 µM
# [21] = target: Tyrosine-protein kinase Lck (Homo sapiens) (UniProt P06239); experiment: Inhibition of recombinant LCK (unknown origin) assessed as residual activity at 1 uM
# [22] = target: T1, Tyrosine-protein kinase BTK; experiment: Inhibition of BTK in human UPF7U cells assessed as reduction of IgM stimulated PLCgamma2 (Y1217) phosphorylation at 0.125 to 1 uM measured after 24 hrs by western blot assay relative to Ibrutinib; assay type: cell-based; conditions: dose 0.125-1 µM
# [23] = target: Mitogen-activated protein kinase; ERK1/ERK2 (Homo sapiens) (UniProt P27361+P28482); experiment: Inhibition of ERK1/2 in human Ramos cells assessed as reduction in ERK1/2 phosphorylation at 1 to 5 uM measured after 24 hrs by western blot assay; assay type: cell-based; conditions: dose 1-5 µM
# Sequence of Mitogen-activated protein kinase; ERK1/ERK2 (Homo sapiens) (P27361 whole entry, looked up): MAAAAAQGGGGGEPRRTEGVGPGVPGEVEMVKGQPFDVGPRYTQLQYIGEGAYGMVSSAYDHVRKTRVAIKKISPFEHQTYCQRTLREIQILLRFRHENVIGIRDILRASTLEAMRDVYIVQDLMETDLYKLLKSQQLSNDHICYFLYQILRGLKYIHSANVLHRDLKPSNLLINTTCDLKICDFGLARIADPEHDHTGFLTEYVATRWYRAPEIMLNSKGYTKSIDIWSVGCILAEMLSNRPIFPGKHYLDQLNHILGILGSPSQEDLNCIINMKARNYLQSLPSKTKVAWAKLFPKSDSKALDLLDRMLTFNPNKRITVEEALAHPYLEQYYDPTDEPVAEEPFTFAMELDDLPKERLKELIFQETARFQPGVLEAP
# Sequence of Mitogen-activated protein kinase; ERK1/ERK2 (Homo sapiens) (P28482 whole entry, looked up): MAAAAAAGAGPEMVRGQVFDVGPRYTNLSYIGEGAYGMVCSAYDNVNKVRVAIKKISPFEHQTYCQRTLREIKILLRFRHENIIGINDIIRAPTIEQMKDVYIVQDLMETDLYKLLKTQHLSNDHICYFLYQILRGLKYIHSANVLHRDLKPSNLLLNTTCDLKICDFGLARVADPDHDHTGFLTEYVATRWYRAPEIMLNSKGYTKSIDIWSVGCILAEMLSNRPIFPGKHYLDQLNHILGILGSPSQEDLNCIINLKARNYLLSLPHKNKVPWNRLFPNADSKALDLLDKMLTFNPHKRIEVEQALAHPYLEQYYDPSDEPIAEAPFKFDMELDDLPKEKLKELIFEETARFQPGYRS
# T1 sequence (Q06187 whole entry): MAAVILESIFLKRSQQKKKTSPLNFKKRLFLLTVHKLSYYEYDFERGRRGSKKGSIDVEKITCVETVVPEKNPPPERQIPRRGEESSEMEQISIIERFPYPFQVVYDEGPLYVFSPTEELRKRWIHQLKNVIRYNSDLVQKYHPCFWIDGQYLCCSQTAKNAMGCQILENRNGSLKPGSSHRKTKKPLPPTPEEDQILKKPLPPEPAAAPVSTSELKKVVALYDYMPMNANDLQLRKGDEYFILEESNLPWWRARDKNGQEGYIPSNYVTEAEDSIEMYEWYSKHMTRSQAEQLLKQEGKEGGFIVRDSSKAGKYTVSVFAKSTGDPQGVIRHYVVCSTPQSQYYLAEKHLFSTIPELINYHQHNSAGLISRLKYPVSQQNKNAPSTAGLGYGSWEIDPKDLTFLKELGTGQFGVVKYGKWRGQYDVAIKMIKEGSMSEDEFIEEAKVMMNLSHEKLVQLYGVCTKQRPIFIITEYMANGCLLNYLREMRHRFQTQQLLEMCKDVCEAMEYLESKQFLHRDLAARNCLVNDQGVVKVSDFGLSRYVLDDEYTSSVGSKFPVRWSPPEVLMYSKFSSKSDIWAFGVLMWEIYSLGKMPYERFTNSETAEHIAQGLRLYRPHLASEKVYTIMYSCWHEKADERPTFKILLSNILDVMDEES
# Sequence of Receptor-type tyrosine-protein kinase FLT3 (Homo sapiens) (P36888 whole entry, the tested form may be a part): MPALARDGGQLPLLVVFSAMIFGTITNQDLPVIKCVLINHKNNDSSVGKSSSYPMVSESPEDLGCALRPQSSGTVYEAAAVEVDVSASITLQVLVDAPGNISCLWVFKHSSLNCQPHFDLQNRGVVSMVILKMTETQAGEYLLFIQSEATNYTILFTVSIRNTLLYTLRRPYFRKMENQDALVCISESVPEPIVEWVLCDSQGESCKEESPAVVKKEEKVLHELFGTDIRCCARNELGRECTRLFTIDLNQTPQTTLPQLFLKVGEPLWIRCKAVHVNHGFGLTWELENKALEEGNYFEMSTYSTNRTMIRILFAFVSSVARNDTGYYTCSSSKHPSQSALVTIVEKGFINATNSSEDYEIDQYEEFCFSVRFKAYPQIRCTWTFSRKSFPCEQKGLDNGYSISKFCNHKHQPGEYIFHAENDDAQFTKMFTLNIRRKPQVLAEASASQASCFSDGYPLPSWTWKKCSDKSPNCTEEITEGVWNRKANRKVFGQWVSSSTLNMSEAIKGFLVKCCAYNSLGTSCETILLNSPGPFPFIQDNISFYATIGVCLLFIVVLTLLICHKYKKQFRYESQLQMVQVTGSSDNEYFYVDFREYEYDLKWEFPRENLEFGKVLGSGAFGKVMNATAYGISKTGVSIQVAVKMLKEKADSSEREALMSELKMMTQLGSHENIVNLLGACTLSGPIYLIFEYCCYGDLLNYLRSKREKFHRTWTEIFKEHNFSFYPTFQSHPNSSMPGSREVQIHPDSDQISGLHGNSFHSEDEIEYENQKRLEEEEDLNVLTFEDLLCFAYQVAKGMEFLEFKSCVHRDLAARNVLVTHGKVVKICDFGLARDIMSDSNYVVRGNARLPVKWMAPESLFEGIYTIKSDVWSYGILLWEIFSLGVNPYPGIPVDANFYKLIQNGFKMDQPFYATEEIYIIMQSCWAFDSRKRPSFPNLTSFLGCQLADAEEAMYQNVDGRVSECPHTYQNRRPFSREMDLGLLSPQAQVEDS
# Sequence of Tyrosine-protein kinase ABL1 (Homo sapiens) (P00519 whole entry): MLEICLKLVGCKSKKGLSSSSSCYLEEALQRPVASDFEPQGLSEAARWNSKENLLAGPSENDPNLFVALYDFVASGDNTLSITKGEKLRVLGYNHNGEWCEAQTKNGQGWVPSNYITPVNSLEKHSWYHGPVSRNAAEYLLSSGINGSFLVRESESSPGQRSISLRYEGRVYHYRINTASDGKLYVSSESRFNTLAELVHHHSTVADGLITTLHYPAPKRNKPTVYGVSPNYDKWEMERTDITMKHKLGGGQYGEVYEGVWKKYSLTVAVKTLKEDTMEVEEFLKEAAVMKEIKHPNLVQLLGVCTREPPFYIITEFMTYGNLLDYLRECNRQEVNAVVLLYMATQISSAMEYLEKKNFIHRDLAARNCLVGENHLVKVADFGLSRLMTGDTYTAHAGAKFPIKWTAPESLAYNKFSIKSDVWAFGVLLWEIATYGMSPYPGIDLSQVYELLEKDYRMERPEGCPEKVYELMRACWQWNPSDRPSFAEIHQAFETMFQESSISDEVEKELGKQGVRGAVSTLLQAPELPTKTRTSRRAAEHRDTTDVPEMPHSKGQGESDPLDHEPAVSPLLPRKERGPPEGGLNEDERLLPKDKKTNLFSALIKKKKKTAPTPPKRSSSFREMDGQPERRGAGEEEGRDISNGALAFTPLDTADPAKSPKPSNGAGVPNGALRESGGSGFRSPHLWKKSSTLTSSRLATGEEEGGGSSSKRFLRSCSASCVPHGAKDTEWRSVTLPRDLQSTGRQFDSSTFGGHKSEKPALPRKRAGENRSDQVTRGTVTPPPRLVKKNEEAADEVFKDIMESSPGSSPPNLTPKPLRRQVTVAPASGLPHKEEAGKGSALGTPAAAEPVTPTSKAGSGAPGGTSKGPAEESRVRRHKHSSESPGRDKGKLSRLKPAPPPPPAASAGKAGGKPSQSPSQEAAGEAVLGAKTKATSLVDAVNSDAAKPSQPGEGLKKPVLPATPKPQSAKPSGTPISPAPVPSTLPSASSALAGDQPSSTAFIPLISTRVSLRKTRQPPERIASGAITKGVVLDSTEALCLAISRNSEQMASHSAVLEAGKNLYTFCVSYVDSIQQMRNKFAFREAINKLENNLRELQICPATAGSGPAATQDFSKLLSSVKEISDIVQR
# Sequence of Tyrosine-protein kinase Fyn (Homo sapiens) (P06241 2-537 limits assumed): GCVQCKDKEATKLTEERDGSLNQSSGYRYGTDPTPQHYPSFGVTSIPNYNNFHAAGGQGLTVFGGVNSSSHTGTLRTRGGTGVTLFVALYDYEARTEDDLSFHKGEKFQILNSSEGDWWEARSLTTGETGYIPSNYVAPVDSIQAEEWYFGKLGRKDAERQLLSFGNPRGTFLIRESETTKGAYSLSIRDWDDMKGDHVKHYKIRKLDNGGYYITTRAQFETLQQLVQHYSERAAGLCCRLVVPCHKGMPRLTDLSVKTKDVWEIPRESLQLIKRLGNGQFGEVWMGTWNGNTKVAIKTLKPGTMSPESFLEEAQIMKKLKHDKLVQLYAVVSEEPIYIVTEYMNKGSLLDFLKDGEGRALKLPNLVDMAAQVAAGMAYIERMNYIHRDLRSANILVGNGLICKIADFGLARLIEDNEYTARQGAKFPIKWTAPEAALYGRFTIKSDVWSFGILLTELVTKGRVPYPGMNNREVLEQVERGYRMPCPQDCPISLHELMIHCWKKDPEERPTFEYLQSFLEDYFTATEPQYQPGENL
# Sequence of Tyrosine-protein kinase Lck (Homo sapiens) (P06239 2-509 limits assumed): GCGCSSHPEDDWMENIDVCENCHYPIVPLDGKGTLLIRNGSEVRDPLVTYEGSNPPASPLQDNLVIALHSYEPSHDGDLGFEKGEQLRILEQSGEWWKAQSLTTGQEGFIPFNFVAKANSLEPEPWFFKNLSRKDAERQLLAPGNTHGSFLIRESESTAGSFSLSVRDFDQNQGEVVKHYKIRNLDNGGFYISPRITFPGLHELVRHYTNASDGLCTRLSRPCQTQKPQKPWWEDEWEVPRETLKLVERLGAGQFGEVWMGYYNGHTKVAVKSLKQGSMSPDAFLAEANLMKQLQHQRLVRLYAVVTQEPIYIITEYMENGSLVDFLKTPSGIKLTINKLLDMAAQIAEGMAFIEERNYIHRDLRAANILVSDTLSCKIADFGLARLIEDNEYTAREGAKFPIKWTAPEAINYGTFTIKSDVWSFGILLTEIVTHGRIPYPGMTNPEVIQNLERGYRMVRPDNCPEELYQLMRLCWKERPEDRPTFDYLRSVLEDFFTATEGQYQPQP
Structure (SMILES),Activity [1] [%],"GI50 ([3]; Homo sapiens, K562) [µM]",Activity [4] [%],Activity [5] [%],Activity [7] [%],Activity [9] [%],"GI50 ([11]; Homo sapiens, Ramos) [µM]",Activity [13] [%],IC50 [14] [µM],"GI50 ([2]; Homo sapiens, UPF1H) [µM]","GI50 ([6]; Homo sapiens, UPF7U) [µM]","GI50 ([8]; Homo sapiens, Rec1) [µM]",also measured
Cc1c(NC(=O)c2nc3ccccc3[nH]2)cccc1-c1cc2[nH]cnc2c(Nc2ccc(C(=O)N3CCOCC3)cc2)n1,53.9,10,92,97.9,64.7,78,10.1,20.9,0.035,> 12.5,> 12.5,> 12.5,inhibition [10]: Active; inhibition [12]: Active
Cc1cccc(-c2cc(Nc3ccc(C(=O)N4CCOCC4)cc3)c3nc[nH]c3n2)c1C,–,> 50,–,–,–,–,> 50,–,–,> 50,> 50,> 50,–
CC(C)(C)c1ccc(C(=O)Nc2cccc(-c3cc4[nH]cnc4c(Nc4ccc(C(=O)N5CCOCC5)cc4)n3)c2)cc1,> 100,2.3,71.4,98.7,86.4,95.9,1.2,14.7,0.027,1,5.5,6,inhibition [15]: Active; inhibition [16]: Active; inhibition [17]: Active; inhibition [18]: Active; inhibition [19]: Dose-Dependent Effect; inhibition [20]: Dose-Dependent Effect; inhibition [21]: Active; inhibition [22]: Active
Cc1c(NC(=O)c2ccc(C(C)(C)C)cc2)cccc1-c1cc2[nH]cnc2c(Nc2ccc(C(=O)N3CCOCC3)cc2)n1,51.9,32.7,80.3,92.1,80.6,> 100,16.5,18.4,0.025,12.2,20.6,24,inhibition [10]: Active; inhibition [23]: inactive; inhibition [12]: Active
Cc1c(NC(=O)c2ccccn2)cccc1-c1cc2[nH]cnc2c(Nc2ccc(C(=O)N3CCOCC3)cc2)n1,> 100,> 12.5,72.5,93.7,78.8,56.8,> 12.5,27.4,0.166,> 12.5,> 12.5,> 12.5,–
C=CC(=O)N1CCC[C@H](n2nc(-c3ccc(Oc4ccccc4)cc3)c3c(N)ncnc32)C1,60.3,–,77.3,69.8,57.5,62.8,–,–,–,–,–,–,GI50 [2]: > 4 µM; GI50 [3]: > 4 µM; GI50 [6]: > 4 µM; GI50 [8]: 3.3 µM; GI50 [11]: > 4 µM
Cc1c(NC(=O)c2cccnc2)cccc1-c1cc2[nH]cnc2c(Nc2ccc(C(=O)N3CCOCC3)cc2)n1,76.2,> 50,62.3,89,75.2,69.1,> 50,25.3,0.264,> 50,> 50,> 50,inhibition [10]: Active; inhibition [23]: inactive; inhibition [12]: Active
COc1ccc(Cn2cnc3c(Nc4ccc(C(=O)N5CCOCC5)cc4)nc(-c4cccc(NC(=O)c5ccc(C(C)(C)C)cc5)c4C)cc32)cc1,42.7,> 50,82.3,96.7,73.9,95.1,> 50,71.2,> 10,> 50,> 50,> 50,–
Cc1c(NC(=O)c2cccc(C(C)(C)C)c2)cccc1-c1cc2[nH]cnc2c(Nc2ccc(C(=O)N3CCOCC3)cc2)n1,64.9,60.1,74.1,95.3,81,> 100,18.6,43.3,0.709,40.3,> 50,64,–
Cc1c(NC(=O)c2ccc(C(C)(C)C)cc2)cccc1-c1cc2c(ncn2C)c(Nc2ccc(C(=O)N3CCOCC3)cc2)n1,> 100,57.3,74.3,95.6,68.8,> 100,12.2,39.7,0.527,25.6,35.6,17.7,–

# Further lines, with some results ahead:
Activity [1] [%],"GI50 ([3]; Homo sapiens, K562) [µM]",Activity [4] [%],Activity [5] [%],Activity [7] [%],Activity [9] [%],"GI50 ([11]; Homo sapiens, Ramos) [µM]",Activity [13] [%],IC50 [14] [µM],Structure (SMILES),"GI50 ([2]; Homo sapiens, UPF1H) [µM]","GI50 ([6]; Homo sapiens, UPF7U) [µM]","GI50 ([8]; Homo sapiens, Rec1) [µM]",also measured
75.7,49,43.3,93,95.1,–,47.2,61.5,0.932,Cc1c(NC(=O)C2CCCCC2)cccc1-c1cc2[nH]cnc2c(Nc2ccc(C(=O)N3CCOCC3)cc2)n1,44.1,> 50,> 50,inhibition [10]: Active; inhibition [23]: inactive; inhibition [12]: Active
95,> 50,61.7,94.5,84,52.4,> 50,38.8,0.545,CC(=O)Nc1cccc(-c2cc3[nH]cnc3c(Nc3ccc(C(=O)N4CCOCC4)cc3)n2)c1C,35.1,> 50,> 50,–
47,> 16.6,71.3,85.2,65.3,68.2,> 16.6,20.1,0.155,Cc1c(NC(=O)c2ccccc2)cccc1-c1cc2[nH]cnc2c(Nc2ccc(C(=O)N3CCOCC3)cc2)n1,> 50,> 50,> 16.6,–
33.3,> 25,66,93.6,56.3,39.4,> 25,24.2,0.041,Cc1c(NC(=O)c2ncc[nH]2)cccc1-c1cc2[nH]cnc2c(Nc2ccc(C(=O)N3CCOCC3)cc2)n1,> 12.5,> 25,> 25,–
–,> 50,–,–,–,–,45.8,–,–,Cc1cccc(-c2cc3[nH]cnc3c(Nc3ccc(C(=O)N4CCOCC4)cc3)n2)c1C,> 50,> 50,42,inhibition [23]: inactive
68.3,> 50,76.5,94.6,36.6,80.8,> 50,27.2,0.079,Cc1c(NC(=O)c2c[nH]cn2)cccc1-c1cc2[nH]cnc2c(Nc2ccc(C(=O)N3CCOCC3)cc2)n1,> 25,> 50,> 50,–
